In the NIST ThermoML archive (doi:10.1016/j.fluid.2018.09.024):
± gives the expanded uncertainty stated by the source.

Assay: activity coefficient (dimensionless); of the first substance listed, at infinite dilution; xn = mol fraction of the nth substance listed
Conditions: 101.33 kPa, Liquid, Chromatography, x1 = 0

CCCC=O [butanal] + CCCCCCCCCCCC[N+](C)(C)CCOc1ccccc1.O=S(=O)([N-]S(=O)(=O)C(F)(F)F)C(F)(F)F
activity coefficient (318.15 K): 0.711 ± 0.047
activity coefficient (328.15 K): 0.742 ± 0.049
activity coefficient (338.15 K): 0.777 ± 0.051
activity coefficient (348.15 K): 0.81 ± 0.052
activity coefficient (358.15 K): 0.844 ± 0.054
activity coefficient (368.15 K): 0.876 ± 0.056

C1CCCCCC1 [cycloheptane] + CCCCCCCCCCCC[N+](C)(C)CCOc1ccccc1.N#C[N-]C#N
activity coefficient (328.15 K): 3.26 ± 0.22
activity coefficient (338.15 K): 3.29 ± 0.22
activity coefficient (348.15 K): 3.31 ± 0.23
activity coefficient (358.15 K): 3.34 ± 0.23
activity coefficient (368.15 K): 3.37 ± 0.23
activity coefficient (378.15 K): 3.39 ± 0.23

C1CCCCCC1 [cycloheptane] + CCCCCCCCCCCC[N+](C)(C)CCOc1ccccc1.O=S(=O)([N-]S(=O)(=O)C(F)(F)F)C(F)(F)F
activity coefficient (318.15 K): 2.26 ± 0.15
activity coefficient (328.15 K): 2.3 ± 0.16
activity coefficient (338.15 K): 2.34 ± 0.16
activity coefficient (348.15 K): 2.37 ± 0.16
activity coefficient (358.15 K): 2.4 ± 0.16
activity coefficient (368.15 K): 2.43 ± 0.17

C1CCCCC1 [cyclohexane] + CCCCCCCCCCCC[N+](C)(C)CCOc1ccccc1.N#C[N-]C#N
activity coefficient (328.15 K): 3.15 ± 0.21
activity coefficient (338.15 K): 3.16 ± 0.22
activity coefficient (348.15 K): 3.18 ± 0.22
activity coefficient (358.15 K): 3.2 ± 0.22
activity coefficient (368.15 K): 3.22 ± 0.22
activity coefficient (378.15 K): 3.24 ± 0.22

C1CCCCC1 [cyclohexane] + CCCCCCCCCCCC[N+](C)(C)CCOc1ccccc1.O=S(=O)([N-]S(=O)(=O)C(F)(F)F)C(F)(F)F
activity coefficient (318.15 K): 2.02 ± 0.14
activity coefficient (328.15 K): 2.05 ± 0.14
activity coefficient (338.15 K): 2.08 ± 0.14
activity coefficient (348.15 K): 2.11 ± 0.14
activity coefficient (358.15 K): 2.13 ± 0.14
activity coefficient (368.15 K): 2.16 ± 0.15

C1=CCCCC1 [cyclohexene] + CCCCCCCCCCCC[N+](C)(C)CCOc1ccccc1.N#C[N-]C#N
activity coefficient (328.15 K): 2.16 ± 0.15
activity coefficient (338.15 K): 2.19 ± 0.15
activity coefficient (348.15 K): 2.22 ± 0.15
activity coefficient (358.15 K): 2.26 ± 0.15
activity coefficient (368.15 K): 2.29 ± 0.16
activity coefficient (378.15 K): 2.31 ± 0.16

C1=CCCCC1 [cyclohexene] + CCCCCCCCCCCC[N+](C)(C)CCOc1ccccc1.O=S(=O)([N-]S(=O)(=O)C(F)(F)F)C(F)(F)F
activity coefficient (318.15 K): 1.47 ± 0.1
activity coefficient (328.15 K): 1.52 ± 0.1
activity coefficient (338.15 K): 1.56 ± 0.1
activity coefficient (348.15 K): 1.61 ± 0.11
activity coefficient (358.15 K): 1.65 ± 0.11
activity coefficient (368.15 K): 1.69 ± 0.11

C1CCCCCCC1 [cyclooctane] + CCCCCCCCCCCC[N+](C)(C)CCOc1ccccc1.N#C[N-]C#N
activity coefficient (328.15 K): 3.56 ± 0.24
activity coefficient (338.15 K): 3.63 ± 0.25
activity coefficient (348.15 K): 3.69 ± 0.25
activity coefficient (358.15 K): 3.72 ± 0.25
activity coefficient (368.15 K): 3.76 ± 0.26
activity coefficient (378.15 K): 3.79 ± 0.26

C1CCCCCCC1 [cyclooctane] + CCCCCCCCCCCC[N+](C)(C)CCOc1ccccc1.O=S(=O)([N-]S(=O)(=O)C(F)(F)F)C(F)(F)F
activity coefficient (318.15 K): 2.57 ± 0.17
activity coefficient (328.15 K): 2.61 ± 0.18
activity coefficient (338.15 K): 2.65 ± 0.18
activity coefficient (348.15 K): 2.68 ± 0.18
activity coefficient (358.15 K): 2.71 ± 0.18
activity coefficient (368.15 K): 2.75 ± 0.19

CCCCCCCCCC [decane] + CCCCCCCCCCCC[N+](C)(C)CCOc1ccccc1.N#C[N-]C#N
activity coefficient (328.15 K): 9.02 ± 0.62
activity coefficient (338.15 K): 9.17 ± 0.63
activity coefficient (348.15 K): 9.31 ± 0.64
activity coefficient (358.15 K): 9.45 ± 0.64
activity coefficient (368.15 K): 9.6 ± 0.65
activity coefficient (378.15 K): 9.75 ± 0.67

CCCCCCCCCC [decane] + CCCCCCCCCCCC[N+](C)(C)CCOc1ccccc1.O=S(=O)([N-]S(=O)(=O)C(F)(F)F)C(F)(F)F
activity coefficient (318.15 K): 5.72 ± 0.39
activity coefficient (328.15 K): 5.8 ± 0.4
activity coefficient (338.15 K): 5.87 ± 0.4
activity coefficient (348.15 K): 5.92 ± 0.4
activity coefficient (358.15 K): 5.98 ± 0.41
activity coefficient (368.15 K): 6.03 ± 0.41

CCOCC [diethyl ether] + CCCCCCCCCCCC[N+](C)(C)CCOc1ccccc1.N#C[N-]C#N
activity coefficient (328.15 K): 2.17 ± 0.15
activity coefficient (338.15 K): 2.22 ± 0.15
activity coefficient (348.15 K): 2.28 ± 0.16
activity coefficient (358.15 K): 2.34 ± 0.16
activity coefficient (368.15 K): 2.39 ± 0.16
activity coefficient (378.15 K): 2.44 ± 0.17

CCOCC [diethyl ether] + CCCCCCCCCCCC[N+](C)(C)CCOc1ccccc1.O=S(=O)([N-]S(=O)(=O)C(F)(F)F)C(F)(F)F
activity coefficient (318.15 K): 1.06 ± 0.07
activity coefficient (328.15 K): 1.12 ± 0.07
activity coefficient (338.15 K): 1.18 ± 0.08
activity coefficient (348.15 K): 1.24 ± 0.08
activity coefficient (358.15 K): 1.3 ± 0.08
activity coefficient (368.15 K): 1.36 ± 0.09
